Experimental findings from patent US20230094952A1, “Method for Culturing Hematopoietic Stem Cells” (Sumitomo Pharma Co., Ltd., priority 2019, published 2023) are described below.

This test deals with mouse long-term hematopoietic stem cells. Kind of test: Reproducibility and concentration dependence test: 1-week culture of sorted Hoxb5-tri-mCherry mouse long-term hematopoietic stem cells, flow cytometry. It counts as cell-based. Conditions: day 7 of culture, n=2. Summed up: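 Hoxb5-tri-mCherry+ LT-HSCs (Lin−c-Kit+Sca-1+Flk2−CD34−/lo CD150+) were sorted from mouse bone marrow at 10 cells/well into StemSpan SFEM with SCF and TPO. Cells were cultured with compound for 1 week at 37°C, 5% CO2. Flow cytometry then measured KLS and mCherry+ fractions and cell counts.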
(In general: In flow cytometry, cells or beads pass a laser one at a time.)

The compound `C[C@H]1[C@H](N2CCOCC2)O[C@@H]2O[C@@]3(C)CC[C@H]4[C@H](C)CC[C@@H]1[C@@]24OO3` [Example 1-13, 4-[(3R,5aS,6R,8aS,9R,10R,12R,12aR)-3,6,9-Trimethyldecahydro-12H-3,12-epoxypyrano[4,3-j][1,2]benzodioxepin-10-yl]morpholine] yielded a KLS-positive rate (Table 4, compound 0.1 μM) of 22.1%; a KLS-positive rate (Table 4, compound 0.3 μM) of 14.7%; a KLS-positive rate (Table 4, compound 1 μM) of 21.0%; a KLS-positive rate (Table 4, compound 3 μM) of 0.0%; a KLS-positive rate (Table 4, compound 10 μM) of 0.0%. The compound further displayed a Viable cell count (Table 4, compound 0.1 μM) of 201.0 cell; a Viable cell count (Table 4, compound 0.3 μM) of 605.0 cell; a Viable cell count (Table 4, compound 1 μM) of 136.5 cell; a Viable cell count (Table 4, compound 3 μM) of 0.0 cell; a Viable cell count (Table 4, compound 10 μM) of 0.0 cell. In addition, the mCherry-positive rate turned out to be 24.3% (Table 4, compound 0.1 μM); 2.9% (Table 4, compound 0.3 μM); 6.7% (Table 4, compound 1 μM); 0.0% (Table 4, compound 3 μM); 0.0% (Table 4, compound 10 μM).
Regarding `CC(=O)OCCO[C@@H]1O[C@@H]2O[C@@]3(C)CC[C@H]4[C@H](C)CC[C@@H]([C@H]1C)[C@@]24OO3` [Example 1-27, 2-{[(3R,5aS,6R,8aS,9R,10R,12R,12aR)-3,6,9-Trimethyldecahydro-12H-3,12-epoxypyrano[4,3-j][1,2]benzodioxepin-10-yl]oxy}ethyl acetate], the KLS-positive rate came to 45.4% (Table 4, compound 0.1 μM); 75.0% (Table 4, compound 0.3 μM); 100.0% (Table 4, compound 1 μM); 90.0% (Table 4, compound 3 μM); 49.8% (Table 4, compound 10 μM). For the same compound, the Viable cell count worked out at 122.0 cell (Table 4, compound 0.1 μM); 14.5 cell (Table 4, compound 0.3 μM); 6.0 cell (Table 4, compound 1 μM); 6.0 cell (Table 4, compound 3 μM); 17.5 cell (Table 4, compound 10 μM). The mCherry-positive rate reads like this: (Table 4, compound 0.1 μM) 44.3%; (Table 4, compound 0.3 μM) 94.7%; (Table 4, compound 1 μM) 100.0%; (Table 4, compound 3 μM) 100.0%; (Table 4, compound 10 μM) 100.0%.
Take `C[C@H]1[C@H](OC(=O)CCC(=O)O)O[C@@H]2O[C@@]3(C)CC[C@H]4[C@H](C)CC[C@@H]1[C@@]24OO3` [Example 1-32, artesunate, reference compound]: the KLS-positive rate by setting is: (Table 3, compound 0.1 μM) 36.3%; (Table 3, compound 0.3 μM) 46.4%; (Table 3, compound 1 μM) 45.3%; (Table 3, compound 3 μM) 0%; (Table 3, compound 10 μM) 0%; (Table 4, compound 0.1 μM) 21.0%. For the same compound, the KLS-positive rate by setting is: (Table 4, compound 0.3 μM) 12.4%; (Table 4, compound 1 μM) 90.6%; (Table 4, compound 3 μM) 21.2%; (Table 4, compound 10 μM) 0.0%. The Viable cell count was found to be 1065.5 cell (Table 3, compound 0.1 μM); 540 cell (Table 3, compound 0.3 μM); 266 cell (Table 3, compound 1 μM); 0.5 cell (Table 3, compound 3 μM); 0.5 cell (Table 3, compound 10 μM); 597.5 cell (Table 4, compound 0.1 μM). Further, the Viable cell count is, setting by setting: (Table 4, compound 0.3 μM) 355.5 cell; (Table 4, compound 1 μM) 9.0 cell; (Table 4, compound 10 μM) 1.0 cell. Further, the mCherry-positive rate reads like this: (Table 3, compound 0.1 μM) 23.59%; (Table 3, compound 0.3 μM) 35.1%; (Table 3, compound 1 μM) 91.2%; (Table 3, compound 3 μM) 50%; (Table 3, compound 10 μM) 0%; (Table 4, compound 0.1 μM) 9.4%. For the same compound, the mCherry-positive rate is, setting by setting: (Table 4, compound 0.3 μM) 6.0%; (Table 4, compound 1 μM) 100.0%; (Table 4, compound 3 μM) 53.3%; (Table 4, compound 10 μM) 25.0%.
For the compound `C[C@H]1[C@H](CN)O[C@@H]2O[C@@]3(C)CC[C@H]4[C@H](C)CC[C@@H]1[C@@]24OO3` [Example 1-18, 1-[(3R,5aS,6R,8aS,9R,10R,12R,12aR)-3,6,9-Trimethyldecahydro-12H-3,12-epoxypyrano[4,3-j][1,2]benzodioxepin-10-yl]methanamine], the KLS-positive rate by setting is: (Table 4, compound 0.1 μM) 10.9%; (Table 4, compound 0.3 μM) 16.7%; (Table 4, compound 1 μM) 22.4%; (Table 4, compound 3 μM) 30.9%; (Table 4, compound 10 μM) 49.6%. The Viable cell count runs as follows: (Table 4, compound 0.1 μM) 405.0 cell; (Table 4, compound 0.3 μM) 191.0 cell; (Table 4, compound 1 μM) 162.0 cell; (Table 4, compound 3 μM) 154.0 cell; (Table 4, compound 10 μM) 72.5 cell. For the same compound, the mCherry-positive rate by setting is: (Table 4, compound 0.1 μM) 23.5%; (Table 4, compound 0.3 μM) 15.4%; (Table 4, compound 1 μM) 19.2%; (Table 4, compound 3 μM) 80.5%; (Table 4, compound 10 μM) 98.6%.
`C[C@H]1[C@@H](C(N)=O)O[C@@H]2O[C@@]3(C)CC[C@H]4[C@H](C)CC[C@@H]1[C@@]24OO3` [Example 1-15, (3R,5aS,6R,8aS,9R,10S,12R,12aR)-3,6,9-Trimethyldecahydro-12H-3,12-epoxypyrano[4,3-j][1,2]benzodioxepine-10-carboxamide] showed a KLS-positive rate (Table 4, compound 0.1 μM) of 6.8%; a KLS-positive rate (Table 4, compound 0.3 μM) of 13.0%; a KLS-positive rate (Table 4, compound 1 μM) of 17.9%; a KLS-positive rate (Table 4, compound 3 μM) of 40.0%; a KLS-positive rate (Table 4, compound 10 μM) of 54.9%. Moreover, the Viable cell count was found to be 379.0 cell (Table 4, compound 0.1 μM); 540.0 cell (Table 4, compound 0.3 μM); 258.0 cell (Table 4, compound 1 μM); 111.0 cell (Table 4, compound 3 μM); 42.5 cell (Table 4, compound 10 μM). The mCherry-positive rate runs as follows: (Table 4, compound 0.1 μM) 7.1%; (Table 4, compound 0.3 μM) 13.3%; (Table 4, compound 1 μM) 47.3%; (Table 4, compound 3 μM) 87.1%; (Table 4, compound 10 μM) 97.6%.
